Where two headings read alike, the source gives them in different places.
Experiments:
M1 muscarinic receptor = biological target: T1, M1 muscarinic receptor (Homo sapiens, UniProt P11229); assay: Functional mobilization of intracellular calcium (FLIPR) in M1-CHO cells; assay type: cell-based
T1 construct: expressed in transfected cells; host or cells: CHO (M1-CHO)
T1 sequence (P11229 1-460): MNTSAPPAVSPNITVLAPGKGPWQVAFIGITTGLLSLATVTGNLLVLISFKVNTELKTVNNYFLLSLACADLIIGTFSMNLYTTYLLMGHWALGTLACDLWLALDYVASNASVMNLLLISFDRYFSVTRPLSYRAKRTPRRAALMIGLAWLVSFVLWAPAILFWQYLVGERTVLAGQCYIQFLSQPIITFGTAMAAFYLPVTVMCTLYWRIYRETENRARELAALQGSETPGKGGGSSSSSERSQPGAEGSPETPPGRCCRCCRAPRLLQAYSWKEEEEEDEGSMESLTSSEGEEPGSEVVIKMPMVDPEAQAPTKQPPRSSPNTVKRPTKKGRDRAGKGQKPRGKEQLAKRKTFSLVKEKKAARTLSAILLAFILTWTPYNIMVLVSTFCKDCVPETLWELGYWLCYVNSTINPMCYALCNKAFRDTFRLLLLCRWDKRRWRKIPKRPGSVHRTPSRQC
In short: (§1)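 Two modes: direct compound addition for agonism, or 15 min compound pre-incubation (or co-application) before carbachol at EC80 for inhibition. Calcium signal from Fluo-3 AM or Calcium 3 dye in CHO cells, 1 mM probenecid, pH 7.4, read 60 sec at 488/540 nm; DMSO 0.5% final.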

M4 muscarinic receptor = biological target: T2, M4 muscarinic receptor (Homo sapiens, UniProt P08173); assay: Functional mobilization of intracellular calcium (FLIPR) in M4-CHO cells; assay type: cell-based
T2 construct: expressed in transfected cells; host or cells: CHO (M4-CHO)
T2 sequence (P08173 1-479): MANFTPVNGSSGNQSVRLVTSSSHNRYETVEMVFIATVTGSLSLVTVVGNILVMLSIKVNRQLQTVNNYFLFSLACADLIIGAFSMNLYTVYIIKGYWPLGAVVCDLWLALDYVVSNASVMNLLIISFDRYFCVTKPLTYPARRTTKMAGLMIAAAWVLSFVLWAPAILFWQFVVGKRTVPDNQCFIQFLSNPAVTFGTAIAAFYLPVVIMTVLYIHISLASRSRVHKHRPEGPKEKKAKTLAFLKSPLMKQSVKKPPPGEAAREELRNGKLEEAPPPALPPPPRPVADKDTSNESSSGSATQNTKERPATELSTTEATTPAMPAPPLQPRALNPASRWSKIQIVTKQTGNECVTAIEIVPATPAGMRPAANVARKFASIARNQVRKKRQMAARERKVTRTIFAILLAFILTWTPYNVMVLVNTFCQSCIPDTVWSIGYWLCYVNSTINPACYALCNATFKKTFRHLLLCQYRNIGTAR
In short: as §1

[1] = Table 4, 100% efficacy is the maximum response obtained with the Carbachol control
[2] = Table 4, M1 receptor, calcium mobilization (FLIPR)
[3] = Table 4, M4 receptor, calcium mobilization (FLIPR)
[4] = M1 receptor, calcium mobilization
[5] = M1 receptor, calcium mobilization, read-out: M1 Efficacy
[6] = M4 receptor, calcium mobilization
[7] = M4 receptor, calcium mobilization, read-out: M4 Efficacy
[8] = Table 4, modulating M1 receptor
[9] = Table 4, modulating M4 receptor
[10] = M1-CHO cells, calcium mobilization (FLIPR)
[11] = M1-CHO cells, calcium mobilization (FLIPR), read-out: M1 Efficacy
[12] = M4-CHO cells, calcium mobilization (FLIPR)
[13] = M4-CHO cells, calcium mobilization (FLIPR), read-out: M4 Efficacy

SMILES	Emax (M1 muscarinic receptor; [1]) [%]	Emax (M4 muscarinic receptor; [1]) [%]	EC50 (M1 muscarinic receptor; [10]) [nM]	Emax (M1 muscarinic receptor; [11]) [%]	EC50 (M4 muscarinic receptor; [12]) [nM]	Emax (M4 muscarinic receptor; [13]) [%]	further results
CC(=O)N[C@H]1CC2(CCN(CC3CCN(C(=O)OC4CCC4)CC3)CC2)c2ccccc21 [compound 818]	< 25	< 25	–	–	–	–	M1 Activity (M1 muscarinic receptor; [2]): x (activity was measured to be greater than 5.0 μM); M4 Activity (M4 muscarinic receptor; [3]): x (activity was measured to be greater than 5.0 μM)
CCCCOC(=O)N1CC2(CCN(C3CCN(C(=O)OCC)CC3)CC2)c2cc(F)ccc21 [compound 220]	–	–	–	–	–	–	M1 Activity (M1 muscarinic receptor; [4]): x (activity was measured to be greater than 1.0 μM); Emax (M1 muscarinic receptor; [5]): 65 to 85%; M4 Activity (M4 muscarinic receptor; [6]): x (activity was measured to be greater than 1.0 μM); Emax (M4 muscarinic receptor; [7]): < 65%
C#CCOC(=O)N1CCC(N2CCC3(CC2)CN(C(C)=O)c2cccc(C)c23)CC1 [compound 453]	25 to 100	< 25	–	–	–	–	M1 Activity (M1 muscarinic receptor; [8]): xxx (activity was measured to be less than 2.0 μM); M4 Activity (M4 muscarinic receptor; [9]): x (activity was measured to be greater than 5.0 μM)
Cc1cc(C(=O)N2CCC(N3CCC4(CC3)CN(C(=O)N(C)C)c3ccc(F)cc34)CC2)no1 [compound 804]	< 25	< 25	–	–	–	–	M1 Activity (M1 muscarinic receptor; [2]): x (activity was measured to be greater than 5.0 μM); M4 Activity (M4 muscarinic receptor; [3]): x (activity was measured to be greater than 5.0 μM)
CCOC(=O)N1CCC(N2CCC3(CC2)CN(C(=O)OCC)c2ccc(F)cc23)CC1 [compound 427]	–	–	100 to 1000	< 65	> 1000	< 65	–
CC(=O)N1CC2(CCN(C3CCN(C(=O)OC(C)C)CC3)CC2)c2cc(C)ccc21 [compound 380]	–	–	< 100	65 to 85	100 to 1000	65 to 85	–
c1ccc2c(c1)NCC21CCN(C2CC3CCC2C3)CC1 (stereo not drawn) [compound 272]	–	–	–	–	–	–	M1 Activity (M1 muscarinic receptor; [4]): xxx (activity was measured to be less than 0.1 μM); Emax (M1 muscarinic receptor; [5]): 65 to 85%; M4 Activity (M4 muscarinic receptor; [6]): xxx (activity was measured to be less than 0.1 μM); Emax (M4 muscarinic receptor; [7]): > 85%
CN(C)C(=O)N1CC2(CCN(C[C@@H]3CCN(c4nccs4)C3)CC2)c2cc(F)ccc21 [compound 570]	25 to 100	25 to 100	–	–	–	–	M1 Activity (M1 muscarinic receptor; [8]): xx (activity was measured to be between 2.0 μM and 5.0 μM); M4 Activity (M4 muscarinic receptor; [9]): xxx (activity was measured to be less than 2.0 μM)
COCCN1CC2(CCN(C3CCCCC3)CC2)c2cc(F)ccc21 [compound 925]	25 to 100	25 to 100	–	–	–	–	M1 Activity (M1 muscarinic receptor; [2]): xxx (activity was measured to be less than 2.0 μM); M4 Activity (M4 muscarinic receptor; [3]): xxx (activity was measured to be less than 2.0 μM)
CN(C)C(=O)N1CC2(CCN(C3CCN(C(=O)c4ccnnc4)CC3)CC2)c2cc(F)ccc21 [compound 988]	25 to 100	25 to 100	–	–	–	–	M1 Activity (M1 muscarinic receptor; [2]): xxx (activity was measured to be less than 2.0 μM); M4 Activity (M4 muscarinic receptor; [3]): xxx (activity was measured to be less than 2.0 μM)
COCCOC(=O)N1C2CCC1CC(N1CCC3(CC1)CN(C(=O)OC1CCC1)c1ccc(F)cc13)C2 (stereo not drawn) [compound 106]	–	–	–	–	–	–	M1 Activity (M1 muscarinic receptor; [4]): xxx (activity was measured to be less than 0.1 μM); Emax (M1 muscarinic receptor; [5]): 65 to 85%; M4 Activity (M4 muscarinic receptor; [6]): xx (activity was measured to be between 0.1 μM and 1.0 μM); Emax (M4 muscarinic receptor; [7]): < 65%
CC(=O)N[C@H]1CC2(CCN(C3CCCCC3)CC2)c2ccccc21 [compound 196]	–	–	–	–	–	–	M1 Activity (M1 muscarinic receptor; [4]): xxx (activity was measured to be less than 0.1 μM); Emax (M1 muscarinic receptor; [5]): 65 to 85%; M4 Activity (M4 muscarinic receptor; [6]): x (activity was measured to be greater than 1.0 μM); Emax (M4 muscarinic receptor; [7]): < 65%
CC(C)OC(=O)N1C2CCC1CC(N1CCC3(CC1)CN(C(=O)O[C@@H]1CCOC1)c1ccc(F)cc13)C2 (stereo partly drawn) [compound 402]	–	–	100 to 1000	65 to 85	> 1000	< 65	–
Fc1ccc2c(c1)C1(CCN(C[C@H]3C[C@H]4C=C[C@H]3C4)CC1)CO2 [compound 376]	–	–	< 100	65 to 85	> 1000	65 to 85	–
CC(=O)NC1CC2(CCN(C[C@H]3C[C@H]4C=C[C@H]3C4)CC2)c2ccccc21 (stereo partly drawn) [compound 392]	–	–	< 100	65 to 85	> 1000	< 65	–

Source: patent US7786141B2 (Vertex Pharmaceuticals Incorporated, priority 2004, dated 2010)
